Test results published in PubChem BioAssay (NCI).
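1) Cells in 96-well plates. 2) Compound, 48 h, 5 concentrations. 3) Linear interpolation between surrounding doses. 4) Unreached endpoint = highest concentration. TGI: total growth inhibition.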

Tests used:
Assay in all cases: inhibition of tumour cell growth, NCI panel, 48 h
NCI/ADR-RES ovarian = tested on: NCI/ADR-RES ovarian
HCT-116 colon = tested on: HCT-116 colon
ACHN renal = tested on: ACHN renal
MALME-3M melanoma = tested on: MALME-3M melanoma
T-47D breast = tested on: T-47D breast
EKVX NSCLC = tested on: EKVX NSCLC
OVCAR-5 ovarian = tested on: OVCAR-5 ovarian
SNB-75 CNS = tested on: SNB-75 CNS
NCI-H522 lung = tested on: NCI-H522 lung
UACC-257 melanoma = tested on: UACC-257 melanoma
MCF7 breast = tested on: MCF7 breast

| SMILES | TGI (NCI/ADR-RES ovarian) [µM] | TGI (HCT-116 colon) [µM] | TGI (ACHN renal) [µM] | TGI (MALME-3M melanoma) [µM] | TGI (T-47D breast) [µM] | TGI (EKVX NSCLC) [µM] | TGI (OVCAR-5 ovarian) [µM] | TGI (SNB-75 CNS) [µM] | TGI (NCI-H522 lung) [µM] | TGI (UACC-257 melanoma) [µM] | TGI (MCF7 breast) [µM] |
| --- | --- | --- | --- | --- | --- | --- | --- | --- | --- | --- | --- |
| Nn1c(-c2ccccc2)nn(C(=O)c2ccccc2)c1=O | > 100 | > 100 | > 100 | > 100 | > 100 | > 100 | > 100 | > 100 | > 100 | > 100 | > 100 |
| O=c1c2cc([N+](=O)[O-])cnc2sn1-c1ccc([N+](=O)[O-])cc1 | 99.3 | 83.9 | > 100 | 53 | 83.6 | > 100 | > 100 | > 100 | 25.7 | > 100 | > 100 |
| CN(C)C(=O)O/N=C1/C(c2c(O)[nH]c3ccccc23)=Nc2ccccc21 | > 100 | > 100 | > 100 | 30 | 50.6 | 33.5 | > 100 | 8.69 | 75.3 | > 100 | > 100 |
| CCOC(=O)C1(C/C=C/CBr)Cc2ccccc2C1=O (stereo not drawn) | 5.02 | 15.8 | 7.19 | 7.43 | 12.2 | 28.7 | 20.1 | 31.9 | 3.11 | 22.6 | 8.73 |
| S=C1Nc2ccccc2SC1c1ccccc1 (stereo not drawn) | > 100 | > 100 | > 100 | > 100 | > 100 | > 100 | > 100 | 71.3 | > 100 | > 100 | > 100 |
| COC(=O)c1cc(=O)nc2sc3cccc(C)c3n12 | > 100 | > 100 | 42.8 | 70.1 | > 100 | > 100 | > 100 | > 100 | 48.3 | > 100 | > 100 |
| COc1cc(C2c3cc4c(cc3OC(N3CCOCC3)C2C)OCO4)ccc1O (stereo not drawn) | 52.2 | 50.4 | > 100 | > 100 | > 78.2 | > 100 | > 100 | > 58 | 58.4 | > 100 | > 83 |
| CCOC(=O)CSc1c(C(=O)OCC)c(=O)n(-c2ccccc2)c(=S)n1-c1ccccc1 | 8.6 | > 100 | > 100 | > 100 | > 100 | > 100 | > 100 | > 100 | > 100 | > 100 | > 100 |
